Several values for one entry are separate records, joined by “and”; a condition that tells them apart may be missing. Equal entries are not always repeated.
Tested on: 596521-263-R-J1-PDC complex spheroids, viability % of control
Assay: Anticancer human tumor 596521-263-R-J1-PDC patient-derived soft tissue sarcoma cell line growth inhibition [GQUAD]
Details: for viability, T/C: stronger effect = lower value
Text: DNA G-quadruplex Stabilizer Agents in Combinations in Complex Spheroids
A high-throughput screen of multi-cell type tumor spheroids was designed to identify active combinations of DNA G-quadruplex stabilizer agents and targeted small molecules. Complex spheroids include a stromal component modeled by human endothelial cells (HUVEC) and fibroblasts modeled by human mesenchymal stem cells (MSCs). The concentration ranges selected for each drug and investigational agent were based upon clinically achievable concentrations if the clinical Cmax of the agent was known.
Compounds. The drugs and investigational agents: pidnarulex (CX-5461; NSC782164), APTO-253 (NSC789042), BRACO-19 (NSC847499), peposertib (NSC802822), ceralasertib (NSC780249), elimusertib (NSC800525), camonsertib (NSC841442), AZD-1390 (NSC803789), olaparib (NSC753686), talazoparib (NSC767125), ART-558 (NSC835418), sotorasib (NSC818433), MRTX-1133 (NSC836407), SN-38 (NSC673596), topotecan (NSC609699), etoposide (NSC141540), doxorubicin (NSC123127), gemcitabine (NSC613327), 5-fluorouracil (NSC19893), paclitaxel (NSC125973), vemurafenib (NSC761431), panobinostat (NSC761190), R-306465 (JNJ-16241199; NSC773264), adavosertib (NSC754352), TP-3654 (NSC805149), carboplatin (NSC241240), KSQ-4279 (NSC840948), and staurosporine (NSC755774) were obtained from the National Cancer Institute (NCI) Developmental Therapeutics Program Chemical Repository (34). The FDA-approved anticancer drug set is available from the NCI Developmental Therapeutics Program. […] The stock solutions were prepared in dimethyl sulfoxide (DMSO, Sigma-Aldrich, St. Louis, MO, cat. D2650) at 800-fold the tested concentration and stored at -70 degrees C prior to their use. All drugs and investigational agents were tested over a range starting from a high concentration at or near the clinical Cmax and decreasing in half-log increments. If the clinical Cmax for an agent had not been determined, the highest concentration tested was 10 microM.
2.3 Cell Culture. All cells were maintained in an incubator at 37 degrees C and 5% CO2 with 95% humidity. The PDC lines were cultured according to standard operating procedures established by the NCI PDMR. All PDCs were thawed and cultured in Matrigel-coated flasks prepared with a working solution of 1X Ham's F-12 nutrient mix, without supplementation (Invitrogen, cat. 11765054), 100 U/mL penicillin-streptomycin (Invitrogen, cat. 15140122), and 2.5% Matrigel (Corning Inc., cat. 354248) for the first three passages. The 857933-349-R-J2-PDC line was cultured in 6C/Colon 1B media, which includes advanced DMEM/F-12 (Thermo Fisher Scientific, cat. 12634028), 10 mM HEPES (Thermo Fisher Scientific, cat. 15630080), 1X GlutaMAX supplement (Thermo Fisher Scientific, cat. 35050061), 0.1 mg/mL primocin (InvivoGen, cat. ant-pm-2), 10% defined fetal bovine serum, heat inactivated (HyClone Laboratories Inc., cat. SH30070.03HI), 50% L-WRN conditioned media (ATCC, cat. CRL-3276), 1.25 mM N-Acetyl-L-cysteine (Sigma-Aldrich, cat. A9165), 10 mM nicotinamide (Sigma-Aldrich, cat. N0636), 1X B-27 supplement (Thermo Fisher Scientific, cat. 17504044), 1X N-2 supplement (Thermo Fisher Scientific, cat. 17502048), 10 microM Y-27632 dihydrochloride (Tocris Bioscience, cat. 1254), and 50 ng/mL human EGF recombinant protein (Thermo Fisher Scientific, cat. PHG0311). The 485176-168-R4-J1-PDC line was cultured in Panc media, which includes all 6C/Colon 1B media components plus 100 ng/mL human FGF-10 (Thermo Fisher Scientific, cat. 100-26), 500 nM SB-431542 (Selleckchem, cat. S1067), and gastrin (Tocris, cat. 3006).
[…]

[1] = curve of first compound, second compound 0.0316 µM
[2] = curve of first compound, second compound 0.1 µM
[3] = curve of first compound, second compound 0.316 µM
[4] = curve of first compound, second compound 1 µM
[5] = curve of first compound, second compound 3.16 µM
[6] = curve of first compound, second compound 10 µM
[7] = second compound 0.0316 µM, first compound 0.0316 µM
[8] = second compound 0.0316 µM, first compound 0.1 µM
[9] = second compound 0.0316 µM, first compound 0.316 µM
[10] = second compound 0.0316 µM, first compound 1 µM
[11] = second compound 0.0316 µM, first compound 3.16 µM
[12] = second compound 0.0316 µM, first compound 10 µM
[13] = second compound 0.1 µM, first compound 0.0316 µM
[14] = second compound 0.1 µM, first compound 0.1 µM
[15] = second compound 0.1 µM, first compound 0.316 µM
[16] = second compound 0.1 µM, first compound 1 µM
[17] = second compound 0.1 µM, first compound 3.16 µM
[18] = second compound 0.1 µM, first compound 10 µM
[19] = second compound 0.316 µM, first compound 0.0316 µM
[20] = second compound 0.316 µM, first compound 0.1 µM
[21] = second compound 0.316 µM, first compound 0.316 µM
[22] = second compound 0.316 µM, first compound 1 µM
[23] = second compound 0.316 µM, first compound 3.16 µM
[24] = second compound 0.316 µM, first compound 10 µM
[25] = second compound 1 µM, first compound 0.0316 µM
[26] = second compound 1 µM, first compound 0.1 µM
[27] = second compound 1 µM, first compound 0.316 µM
[28] = second compound 1 µM, first compound 1 µM
[29] = second compound 1 µM, first compound 3.16 µM
[30] = second compound 1 µM, first compound 10 µM
[31] = second compound 3.16 µM, first compound 0.0316 µM
[32] = second compound 3.16 µM, first compound 0.1 µM
[33] = second compound 3.16 µM, first compound 0.316 µM
[34] = second compound 3.16 µM, first compound 1 µM
[35] = second compound 3.16 µM, first compound 3.16 µM
[36] = second compound 3.16 µM, first compound 10 µM
[37] = second compound 10 µM, first compound 0.0316 µM
[38] = second compound 10 µM, first compound 0.1 µM
[39] = second compound 10 µM, first compound 0.316 µM
[40] = second compound 10 µM, first compound 1 µM
[41] = second compound 10 µM, first compound 3.16 µM
[42] = second compound 10 µM, first compound 10 µM
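Further: spheroids exposed to drugs for 7 days before viability reading.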

`O=c1[nH]cc(F)c(=O)[nH]1` + Cc1[nH]c2ccc(F)cc2c1-c1nc2c3cccnc3c3ncccc3c2[nH]1 was tested, and the IC50 [1] was > 10 µM, the IC50 [2] was > 10 µM and the IC50 [3] was > 10 µM. The IC50 [4] was > 10 µM, the IC50 [5] was > 10 µM and the IC50 [6] was > 10 µM. It also gave a viability, T/C [7] of 98.4%, a viability, T/C [8] of 105% and a viability, T/C [9] of 100%. The viability, T/C [10] was 101%, the viability, T/C [11] was 101% and the viability, T/C [12] was 98.3%. The viability, T/C [13] was 100%, the viability, T/C [14] was 101% and the viability, T/C [15] was 101%. The viability, T/C [16] was 105%, the viability, T/C [17] was 94.9% and the viability, T/C [18] was 95.1%. The viability, T/C [19] was 90.8%, the viability, T/C [20] was 104% and the viability, T/C [21] was 106%. For the same compound, the viability, T/C [22] was 113%, the viability, T/C [23] was 118% and the viability, T/C [24] was 81.8%. The viability, T/C [25] was 100%, the viability, T/C [26] was 96.6% and the viability, T/C [27] was 100%. It also gave a viability, T/C [28] of 88.9%, a viability, T/C [29] of 93.9% and a viability, T/C [30] of 86.6%. For the same compound, the viability, T/C [31] was 96%, the viability, T/C [32] was 95.4% and the viability, T/C [33] was 88.5%. For the same compound, the viability, T/C [34] was 86.7%, the viability, T/C [35] was 89.1% and the viability, T/C [36] was 82.4%. It also gave a viability, T/C [37] of 63.3%, a viability, T/C [38] of 70.6% and a viability, T/C [39] of 80.7%. For the same compound, the viability, T/C [40] was 77.5%, the viability, T/C [41] was 76.4% and the viability, T/C [42] was 72.4%.

In the case of `CC(=O)O[C@H]1C(=O)[C@@]2(C)[C@H]([C@H](OC(=O)c3ccccc3)[C@]3(O)C[C@H](OC(=O)[C@H](O)[C@@H](NC(=O)c4ccccc4)c4ccccc4)C(C)=C1C3(C)C)[C@]1(OC(C)=O)CO[C@@H]1C[C@@H]2O` + Cc1cnc(CNC(=O)c2c(=O)c3ccc(N4CCCN(C)CC4)nc3n3c2sc2ccccc23)cn1, the IC50 [1] is reported as < 0.0316 µM, the IC50 [2] is reported as < 0.0316 µM and the IC50 [3] is reported as < 0.0316 µM. The IC50 [4] was < 0.0316 µM, the IC50 [5] was < 0.0316 µM and the IC50 [6] was < 0.0316 µM. It also gave a viability, T/C [7] of 44%, a viability, T/C [8] of 30.7% and a viability, T/C [9] of 23.5%. The viability, T/C [10] was 27.8%, the viability, T/C [11] was 25.9% and the viability, T/C [12] was 28%. For the same compound, the viability, T/C [13] was 43.7%, the viability, T/C [14] was 25.2% and the viability, T/C [15] was 28.9%. The viability, T/C [16] was 28.8%, the viability, T/C [17] was 29.3% and the viability, T/C [18] was 28.9%. The viability, T/C [19] was 38.5%, the viability, T/C [20] was 30.4% and the viability, T/C [21] was 25.1%. For the same compound, the viability, T/C [22] was 28.1%, the viability, T/C [23] was 29% and the viability, T/C [24] was 30.8%. It also gave a viability, T/C [25] of 36.5%, a viability, T/C [26] of 32.5% and a viability, T/C [27] of 28.5%. It also gave a viability, T/C [28] of 27.9%, a viability, T/C [29] of 27.7% and a viability, T/C [30] of 31.1%. The viability, T/C [31] was 35.4%, the viability, T/C [32] was 28.1% and the viability, T/C [33] was 24.5%. For the same compound, the viability, T/C [34] was 25.5%, the viability, T/C [35] was 27.6% and the viability, T/C [36] was 32.2%. The viability, T/C [37] was 7.69%, the viability, T/C [38] was 8.44% and the viability, T/C [39] was 7.94%. The viability, T/C [40] was 7.65%, the viability, T/C [41] was 0.28% and the viability, T/C [42] was 0.22%.

For `CC[C@@]1(O)C(=O)OCc2c1cc1n(c2=O)Cc2cc3c(CN(C)C)c(O)ccc3nc2-1`, the viability, T/C (compound 0.000999 µM) was 102% and 100% and 105%, the viability, T/C (compound 0.00316 µM) was 102% and 88.7% and 106% and the viability, T/C (compound 0.00999 µM) was 87.2% and 87.7% and 96.7%. The viability, T/C (compound 0.0316 µM) was 78.6% and 59.5% and 63.7%, the viability, T/C (compound 0.0999 µM) was 57.2% and 51.5% and 58.3% and the viability, T/C (compound 0.316 µM) was 52.4% and 46.4% and 50.7%. For the same compound, the IC50 (curve of compound) was > 0.316 µM and 0.0933 µM.
